Measurements reported in article PMC7657476, “An improved whole life cycle culture protocol for the hydrozoan genetic model Clytia hemisphaerica” (Biology Open, 2020).
Square brackets hold non-standard residues; d marks the D form. Ends that are not written are not given here. pGlu = O=C1CC[C@@H](C(=O)O)N1

Test system: Clytia hemisphaerica planula larvae
Experiment: Metamorphosis (settlement) induction of planula larvae by synthetic GLW-amide neuropeptides
Format: in vivo
Details: for Metamorphosis efficiency, Average: peptide concentration not given
Experimental: (1) Culture planula larvae in MFSW containing penicillin and streptomycin. (2) Wash the surface of large glass slides (75 mm×50 mm) with warm tap water (40–50°C) and dry. Place them in 100 mm diameter petri dishes. (3) Dilute GLW-amide peptide stock solution (1–5 mM in distilled water, stored at −20°C) just prior to use in MFSW (4 ml/large slide). Recommended final concentration for GLW-amide-6 is 0.5 µM. (4) Using a plastic transfer pipette, carefully pour 0.1 ml/cm^2 or more peptide-containing sea water over the glass slide (4 ml for large glass slides, Fig. S1F). (5) Transfer 2.5–3-day-old planulae using a glass pipette. Disperse them as the settlement starts quickly. (6) Cover the dish with a lid to minimize the water evaporation and keep the dish undisturbed. (7) Planula will be firmly settled in several hours after peptide treatment. Transfer slides to polyp tanks, not later than 16 h after induction. (8) Start to feed smashed Artemia once the primary polyps have extended tentacles and open mouths. (9) Once the colony contains multiple gastrozooids, it can be fed normally with live Artemia nauplii.
Metamorphosis of planula larvae was induced by transferring them onto glass slides covered with at least 0.1 ml/cm^2 of sea water containing synthetic neuropeptides (Fig. 2E). A selection of synthetic amidated peptides derived from the neuropeptide precursors Che-PP2 and Che-PP11 ([Takeda et al., 2018]) were tested as metamorphosis inducers (Table 2) on 3-day-old planula larvae obtained by crossing Z13 (male) and Z11 (female) strains. Planula attach firmly onto the slide within a few hours (Fig. 1C, left). Metamorphosis efficiency was measured by successful settlement on the slide at 12 h, as the timing of stalk extension is variable, from several hours to days.

Substance | Planula settlement efficiency (previous conditions, 1 µM peptide, variable (Fig. 7)) [%] | Planula settlement on the glass slide (0.3 µM peptide, settlement scored at 12 h, 5 repeats of 20 planulae (Fig. 7)) | Lowest concentration active in inducing metamorphosis (3-day-old planulae (Z13 x Z11) on glass slide in sea water containing peptide, settlement scored at 12 h, 5 repeats of 20 planulae (Fig. 7)) [µM] | Planula settlement efficiency (newly designed peptide, concentration not printed at this place (Fig. 7)) [%] | Metamorphosis efficiency, Average (substrate agarose (2%), sample size 96–98, 4 repeats) [%] | Metamorphosis efficiency, Average (substrate glass, sample size 90–99, 5 repeats) [%] | Metamorphosis efficiency, Average (substrate plastic (polypropyrene), sample size 90–100, 5 repeats) [%]
GNPPGLW-NH2 [GLW-amide-2, synthetic GLW-amide neuropeptide from Clytia transcriptome (precursor PP11), previously used to trigger metamorphosis] | ≥ 40 |  |  |  |  |  | 
[pGlu]QQAPKGLW-NH2 [GLW-amide-6, synthetic GLW-amide neuropeptide derived from precursor Che-PP11] |  | virtually all | 0.3 | ~100 | 96.5 | 98.6 | 99.9
